Three molecules from publication doi:10.1101/2023.08.10.552651v1 (biorxiv, 2023) can be followed below.

Assay in all cases: isothermal titration calorimetry
Holding throughout (assay type): binding
Holding throughout (details): Tris-HCl, 150 mM NaCl, pH 7.9-8.0, 20 °C; 30 µM trimer; one-site model
For orientation: In ITC the heat of successive injections is recorded.

In experiment [1] the target is ScSbtB (SbtB) (Synechocystis sp. PCC 6803, UniProt P73954, R43A).
The target of experiment [2] is ScSbtB (SbtB) (Synechocystis sp. PCC 6803, UniProt P73954, K40A).
ScSbtB (SbtB) (Synechocystis sp. PCC 6803, UniProt P73954, K40A), sequence (P73954 2-110 K40A): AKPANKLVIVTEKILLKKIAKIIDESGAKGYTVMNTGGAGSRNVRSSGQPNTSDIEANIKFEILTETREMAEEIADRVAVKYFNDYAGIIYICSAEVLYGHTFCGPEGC
Experiment [3] has as its target ScSbtB (SbtB) (Synechocystis sp. PCC 6803, UniProt P73954, R46A).

ScSbtB (SbtB) (Synechocystis sp. PCC 6803, UniProt P73954, R46A), sequence (P73954 2-110 R46A): as the sequence (P73954 2-110 K40A) above, with A39K, R45A counted along it
ScSbtB (SbtB) (Synechocystis sp. PCC 6803, UniProt P73954, R43A), sequence (P73954 2-110 R43A): as the sequence (P73954 2-110 K40A) above, with A39K, R42A counted along it

For orientation: Kd means the concentration at which binding is half-saturated. The low end stands for a tighter complex, the high end for a looser complex. With `Nc1ncnc2c1ncn2[C@@H]1O[C@H](COP(=O)(O)OP(=O)(O)O)[C@@H](O)[C@H]1O` [ADP], the equilibrium dissociation constant (Kd) at ScSbtB (SbtB) [1] came out at 472 µM; on ScSbtB (SbtB) [2], 877 µM; at ScSbtB (SbtB) [3], 435 µM.

On ScSbtB (SbtB) [3], `Nc1ncnc2c1ncn2[C@@H]1O[C@H](COP(=O)(O)O)[C@@H](O)[C@H]1O` [AMP] had a dissociation constant Kd of 94.3 µM.

As to `Nc1ncnc2c1ncn2[C@@H]1O[C@H](COP(=O)(O)OP(=O)(O)OP(=O)(O)O)[C@@H](O)[C@H]1O` [ATP], the dissociation constant Kd on ScSbtB (SbtB) [1] amounted to 213 µM; at ScSbtB (SbtB) [2], 357 µM.
